Data published in paper PMC6844378, “Structure activity relationship studies on Amb639752: toward the identification of a common pharmacophoric structure for DGKα inhibitors” (Journal of Enzyme Inhibition and Medicinal Chemistry, 2019).

Experiments:
DGKα = DGKα (Homo sapiens, UniProt P23743); assay: DGK assay on OST-DGKα enriched MDCK homogenates; type: biochemical; parameters: expressed in transfected cells; host or cells: MDCK cells (vector-infected, doxycycline-induced), crude homogenate; conditions: for remaining activity at 100 µM: percentage of residual DGKα activity compared to DMSO control, OST-DGKα overexpressing cell lysates, saturating DAG and ATP, read-out: Residue activity at 100 µM; for IC50: residual OST-DGKα activity at 0.1, 1.0, 10.0 and 100.0 µM
Chain of DGKα (P23743 whole entry): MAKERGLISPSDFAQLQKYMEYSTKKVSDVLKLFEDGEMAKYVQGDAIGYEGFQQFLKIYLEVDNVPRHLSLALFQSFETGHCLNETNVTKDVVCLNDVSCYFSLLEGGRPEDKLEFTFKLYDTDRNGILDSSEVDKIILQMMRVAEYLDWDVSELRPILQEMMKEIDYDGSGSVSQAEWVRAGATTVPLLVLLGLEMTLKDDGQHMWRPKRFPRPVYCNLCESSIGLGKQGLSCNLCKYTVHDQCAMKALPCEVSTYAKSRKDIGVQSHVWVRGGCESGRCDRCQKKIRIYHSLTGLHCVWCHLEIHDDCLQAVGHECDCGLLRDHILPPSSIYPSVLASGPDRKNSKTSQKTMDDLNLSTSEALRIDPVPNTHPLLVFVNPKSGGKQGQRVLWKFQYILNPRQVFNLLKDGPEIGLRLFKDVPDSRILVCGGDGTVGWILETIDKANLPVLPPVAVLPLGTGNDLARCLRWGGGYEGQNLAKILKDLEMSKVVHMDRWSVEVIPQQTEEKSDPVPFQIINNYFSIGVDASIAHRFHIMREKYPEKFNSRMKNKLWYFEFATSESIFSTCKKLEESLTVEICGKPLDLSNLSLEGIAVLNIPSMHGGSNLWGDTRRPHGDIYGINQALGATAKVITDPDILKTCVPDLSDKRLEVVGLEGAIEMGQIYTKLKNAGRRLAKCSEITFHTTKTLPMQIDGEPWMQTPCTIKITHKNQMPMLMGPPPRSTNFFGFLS
Description: Madin-Darby canine kidney (MDCK) cells stably expressing One Strep Tag DGKα (OST-DGKα) were prepared by infecting MDCK cells with a vector expressing an inducible OST tagged DGKα constructs. MDCK cells infected with empty vector were used as controls. MDCK cells were cultured in MEM (minimal essential medium) with 5% FBS (foetal bovine serum) and 1% antibiotic–antimycotic solution. Routinely, cells were splitted every 3–4 days with trypsin–EDTA 0.25% in standard 100 mm dishes.
Large cultures of MDCK cells for enzyme preparation were done by plating 5 × 10^6 cells in 245 mm^2 dishes. Once they reached nearly 70% confluence, cells were treated with doxycycline (1 µg/mL, two days). […] Cells were collected with a rubber scraper, homogenised by passing them through a 29 G-needle syringe 20 times and stored in aliquots at –80 °C. Presence of OST-DGKα was confirmed by western blotting and enzyme assay, transduced DGKα has an activity >100 folds the endogenous DGK.
Essentionally, the same procedure was followed as reported previously in Velnati et al.[9] In brief, DGK activity was assayed by measuring initial velocities (5 min at 27 °C) in presence of saturating substrate concentrations. Reaction conditions: 0.9 µg/µL 1,2-dioleoyl-sn-glycerol, 5 mM ATP, 0.01 µCi/µL [γ^32P]-ATP, 1 mM sodium orthovanadate, 10 mM MgCl2, 1.2 mM EGTA in 7.5 mM Hepes pH 8[12]. Reaction mixture is assembled mixing enzyme (24.5 µL of homogenate), 100× inhibitor or DMSO (0.5 µL), 5× ATP solution (10 µL of 25 mM ATP, 0.05 µCi/µL [γ^32P]-ATP (Perkin-Elmer, Milan, Italy), 5 mM sodium orthovanadate, 50 mM MgCl2), and 3.3× DAG solution (15 µL of 3 µg/µL 1,2-dioleoyl-sn-glycerol resuspended by sonication in 4 mM EGTA in 25 mM Hepes pH 8). The reaction was stopped after 5 min by adding 200 µL of freshly prepared 1 M HCl and lipid was extracted by adding 200 µL of CH3OH:CHCl3 1:1 solution and vortexing for 1 min. The two phases were separated by centrifugation (12,000 RCF for 2 min). Twenty-five microlitres of the lower organic phase was spotted in small drops on silica TLC plates. TLC was run 10 cm and dried before radioactive signals were detected by GS-250 molecular imager and was quantified by quantity one (Bio-Rad, Hercules, CA) software assuring the absence of saturated spots.
Percentage residual activity was calculated as follows: (OST-DGKα homogenate with inhibitor – vector homogenate)/(OST-DGKα homogenate with DMSO – vector homogenate)×100.
Data for the screen on OST-DGKα homogenates are the mean of duplicates. The compounds showing inhibitory activity in this assay were tested >4 times and the mean ± SEM is reported.
To calculate IC50 values of active inhibitors, the inhibitor activity was measured at least three times at 0.1, 1.0, 10.0, and 100.0 µM concentration. Data were analysed using [inhibitor] vs. normalised response parameters with least square [ordinary] curve fitting method in GraphPad PRISM 8.0 software (GraphPad Software, La Jolla, CA) mentioning 95% confidence interval and IC50 values always greater than 0.0. […] In all the experiments, the data were normalised with the controls.
Each inhibitor was tested in duplicate at least once, and DGKα activity was expressed as percentage of residual DGKα activity compared to DMSO control in the same assay. Assay uses OST-DGKα overexpressing cell lysates in presence of saturating exogenous DAG and ATP. We considered R59022 (commercially available) and the lead compound Amb63975230 as our reference molecules.
To measure the inhibitor potency, we determined the IC50 values for the compounds that resulted active when tested at 100 µM by measuring the residual OST-DGKα activity over a dose range of inhibitor concentrations (0.1 µM, 1.0 µM, 10.0 µM, and 100.0 µM).

SAP-deficient T cells = assay: RICD assay in SAP silenced T cells; type: cell-based, human; conditions: 10 µM, 30 min pre-treatment, OKT3 10 ng/mL, 24 h; for rescue of RICD (apoptosis) in SAP-deficient T cells: SAP siRNA
Description: PBL were isolated from healthy anonymous human donors by Ficoll-Paque PLUS (GE Healthcare, Chicago, IL) density gradient centrifugation, washed, and resuspended at 2 × 10^6 cell/mL in RPMI-GlutaMAX containing 10% heat inactivated FCS, 2 mM glutamine, and 100 U/mL of penicillin and streptomycin. T cells were activated with 1 µg/mL anti-CD3 (UCHT1) and anti-CD28 (clone CD28.2) antibodies. After three days, activated T cells were washed and cultured in medium additionated of 100 IU/mL rhIL-2 (Peprotech, Rocky Hill, NJ) at 1.2 × 10^6 cells/mL for ≥7 days by changing media for every 2–3 days.
Activated human PBLs were transfected with 200 pmol of siRNA oligonucleotides specific for the target protein (Stealth Select siRNA; Life Technologies, Carlsbad, CA) or a non-specific control oligo (Life Technologies, Carlsbad, CA). Transient transfections were performed using Amaxa nucleofector kits for human T cells (Lonza, Basel, Switzerland) and the Amaxa Nucleofector II or 4D systems (programmes T-20 or EI-115). Cells were cultured in IL-2 (100 IU/mL) for four days to allow target gene knockdown. Knockdown efficiency was periodically evaluated by Western blotting.
To test restimulation induced cell death, activated T cells (10^5 cells/well) were plated in triplicate in 96-well round-bottom plate and treated with anti-CD3 (clone OKT3) (10 ng/mL) in RPMI-GlutaMAX supplemented with 100 IU/mL rhIL-2 for 24 h. In these assays, inhibitors (10 µM) were added 30 min before the restimulation with OKT3. 24 h after treatment, cells were stained with 20 ng/mL propidium iodide and collected for a constant time of 30 s per sample on Attune Nxt Flow Cytometer (Thermo Fisher Scientific, Waltham, MA). Cell death is expressed as % cell loss and calculated as: % cell loss=(1−(number of viable cells in sample/number of viable cells in control)×100)
Results were expressed as mean ± standard error of the mean (SEM). We always compared controls and SAP silenced lymphocytes from the same donors as there is a large individual variability in RICD sensitivity.
To evaluate inhibitor efficacy in physiological context, we modelled XLP-1 by silencing SAP in primary peripheral blood T lymphocytes (PBLs) and restimulating them with anti-CD3 antibody (OKT3 10 ng/mL, 24 h). We pre-treated the cells with the indicated inhibitors for 30 min at a concentration of 10 µM[8].
Figure 9. DGKα inhibitors partially restores apoptosis in SAP deficient lymphocytes. […] After 4 days, the cells were restimulated with CD3 agonist OKT3 (10 ng/mL) in presence of respective inhibitor. Vehicle (DMSO) was used as control. Twenty-four hours later, the % of cell loss was evaluated by PI staining. Data are the mean ± SEM of nine independent experiments performed in triplicate.

inhibition at 100 µM (DGKα; 100 µM) [%] | remaining activity at 100 µM (DGKα; 100 µM) [%] | IC50 (DGKα) [µM] | Structure (SMILES) | effect on RICD in control siRNA-transfected cells (SAP-deficient T cells) | rescue of RICD (apoptosis) in SAP-deficient T cells (SAP-deficient T cells)
96 | 4 | 6.9 ± 3 | Cc1ccc2c(C(=O)CN3CCN(C(=O)c4ccco4)CC3)c(C)[nH]c2c1 [Amb639752] | slightly reducing | –
– | 6 | 1.6 | Cc1ccc2c(C(=O)CN3CCN(C(=O)c4ccc(Cl)cc4)CC3)c(C)[nH]c2c1 [Compound 11, 2-(4-(4-Chlorobenzoyl)piperazin-1-yl)-1-(2,6-dimethyl-1H-indol-3-yl)ethan-1-one] | slightly reducing | restore apoptosis
– | 3 | 1.8 | Cc1ccc(C(=O)N2CCN(CC(=O)c3c(C)[nH]c4cc(C)ccc34)CC2)cc1 [Compound 20, 1-(2,6-Dimethyl-1H-indol-3-yl)-2-(4-(4-methylbenzoyl)piperazin-1-yl)ethan-1-one] | – | restore apoptosis
